Laboratory results from ChEMBL document CHEMBL4507319 (2021).

Columns and labels:
[1] = biological target: T1, Mitogen-activated protein kinase kinase kinase 5 (Homo sapiens) (UniProt Q99683); conditions: Compound concentration 1000.0 nM
T1 sequence (whole entry): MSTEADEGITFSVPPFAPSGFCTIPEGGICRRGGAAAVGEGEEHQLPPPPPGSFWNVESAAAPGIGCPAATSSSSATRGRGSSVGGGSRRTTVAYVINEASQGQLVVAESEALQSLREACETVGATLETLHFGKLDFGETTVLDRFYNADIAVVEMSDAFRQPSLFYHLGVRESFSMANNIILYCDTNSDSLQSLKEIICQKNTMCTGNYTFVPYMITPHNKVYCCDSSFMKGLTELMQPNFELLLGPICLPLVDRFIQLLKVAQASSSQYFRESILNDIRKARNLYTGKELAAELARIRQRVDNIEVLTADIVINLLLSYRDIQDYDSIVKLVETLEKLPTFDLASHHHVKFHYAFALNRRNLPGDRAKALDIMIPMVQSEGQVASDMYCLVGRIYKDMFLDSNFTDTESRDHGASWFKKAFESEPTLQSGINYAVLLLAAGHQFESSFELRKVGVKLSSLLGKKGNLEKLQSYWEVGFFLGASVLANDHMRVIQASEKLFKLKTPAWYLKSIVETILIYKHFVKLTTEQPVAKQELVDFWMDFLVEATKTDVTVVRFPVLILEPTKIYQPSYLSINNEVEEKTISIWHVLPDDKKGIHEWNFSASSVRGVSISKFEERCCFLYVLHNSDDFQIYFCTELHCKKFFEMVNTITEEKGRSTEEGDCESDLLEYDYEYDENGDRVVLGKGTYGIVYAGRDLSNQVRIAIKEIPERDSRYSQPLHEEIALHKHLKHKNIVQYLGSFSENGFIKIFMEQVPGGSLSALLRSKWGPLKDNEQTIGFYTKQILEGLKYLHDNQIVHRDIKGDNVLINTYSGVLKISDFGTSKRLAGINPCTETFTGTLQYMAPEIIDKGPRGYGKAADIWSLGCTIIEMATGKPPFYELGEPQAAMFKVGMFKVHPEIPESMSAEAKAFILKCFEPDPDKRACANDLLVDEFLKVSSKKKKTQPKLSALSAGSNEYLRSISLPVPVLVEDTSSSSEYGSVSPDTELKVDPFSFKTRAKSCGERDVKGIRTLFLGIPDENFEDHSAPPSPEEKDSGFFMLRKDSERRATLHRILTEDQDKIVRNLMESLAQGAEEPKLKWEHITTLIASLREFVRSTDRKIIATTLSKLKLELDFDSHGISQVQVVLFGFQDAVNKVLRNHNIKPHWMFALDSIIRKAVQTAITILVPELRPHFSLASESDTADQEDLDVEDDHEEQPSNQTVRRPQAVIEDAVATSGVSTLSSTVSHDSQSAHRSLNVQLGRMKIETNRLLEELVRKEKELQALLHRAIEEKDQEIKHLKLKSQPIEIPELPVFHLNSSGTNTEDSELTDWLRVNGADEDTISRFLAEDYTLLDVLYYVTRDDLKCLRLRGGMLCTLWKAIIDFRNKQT

[2] = biological target: Calcium/calmodulin-dependent protein kinase kinase 1 (Homo sapiens) (UniProt Q8N5S9); conditions: Compound concentration 1000.0 nM
Sequence of Calcium/calmodulin-dependent protein kinase kinase 1 (Homo sapiens) (Q8N5S9 whole entry, looked up): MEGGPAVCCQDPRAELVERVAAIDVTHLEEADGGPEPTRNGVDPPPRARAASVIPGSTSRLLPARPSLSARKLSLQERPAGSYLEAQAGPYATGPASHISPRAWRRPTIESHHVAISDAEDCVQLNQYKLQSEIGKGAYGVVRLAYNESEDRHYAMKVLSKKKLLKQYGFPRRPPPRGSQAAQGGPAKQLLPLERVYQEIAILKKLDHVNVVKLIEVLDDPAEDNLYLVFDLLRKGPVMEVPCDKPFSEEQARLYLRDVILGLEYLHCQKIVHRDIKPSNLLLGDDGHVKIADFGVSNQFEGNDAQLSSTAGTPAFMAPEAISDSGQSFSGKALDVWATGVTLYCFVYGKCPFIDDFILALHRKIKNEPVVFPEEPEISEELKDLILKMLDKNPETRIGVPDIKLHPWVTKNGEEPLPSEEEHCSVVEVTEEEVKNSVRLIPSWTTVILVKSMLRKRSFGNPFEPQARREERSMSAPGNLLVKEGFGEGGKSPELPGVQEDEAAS

[3] = biological target: Mitogen-activated protein kinase 3 (Homo sapiens) (UniProt P27361); conditions: Compound concentration 1000.0 nM
Sequence of Mitogen-activated protein kinase 3 (Homo sapiens) (P27361 whole entry): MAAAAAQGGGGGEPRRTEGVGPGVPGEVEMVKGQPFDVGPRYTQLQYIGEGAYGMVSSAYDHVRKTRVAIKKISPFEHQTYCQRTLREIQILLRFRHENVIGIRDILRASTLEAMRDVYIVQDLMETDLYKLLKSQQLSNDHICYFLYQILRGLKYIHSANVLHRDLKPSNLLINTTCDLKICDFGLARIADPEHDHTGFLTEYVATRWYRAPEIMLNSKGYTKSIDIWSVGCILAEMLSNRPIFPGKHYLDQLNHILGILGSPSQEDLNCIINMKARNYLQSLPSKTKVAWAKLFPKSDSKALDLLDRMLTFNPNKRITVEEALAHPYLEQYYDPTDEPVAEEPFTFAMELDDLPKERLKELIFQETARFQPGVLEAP

[4] = biological target: Serine/threonine-protein kinase PLK2 (Homo sapiens) (UniProt Q9NYY3); conditions: Compound concentration 1000.0 nM
Sequence of Serine/threonine-protein kinase PLK2 (Homo sapiens) (Q9NYY3 whole entry, looked up): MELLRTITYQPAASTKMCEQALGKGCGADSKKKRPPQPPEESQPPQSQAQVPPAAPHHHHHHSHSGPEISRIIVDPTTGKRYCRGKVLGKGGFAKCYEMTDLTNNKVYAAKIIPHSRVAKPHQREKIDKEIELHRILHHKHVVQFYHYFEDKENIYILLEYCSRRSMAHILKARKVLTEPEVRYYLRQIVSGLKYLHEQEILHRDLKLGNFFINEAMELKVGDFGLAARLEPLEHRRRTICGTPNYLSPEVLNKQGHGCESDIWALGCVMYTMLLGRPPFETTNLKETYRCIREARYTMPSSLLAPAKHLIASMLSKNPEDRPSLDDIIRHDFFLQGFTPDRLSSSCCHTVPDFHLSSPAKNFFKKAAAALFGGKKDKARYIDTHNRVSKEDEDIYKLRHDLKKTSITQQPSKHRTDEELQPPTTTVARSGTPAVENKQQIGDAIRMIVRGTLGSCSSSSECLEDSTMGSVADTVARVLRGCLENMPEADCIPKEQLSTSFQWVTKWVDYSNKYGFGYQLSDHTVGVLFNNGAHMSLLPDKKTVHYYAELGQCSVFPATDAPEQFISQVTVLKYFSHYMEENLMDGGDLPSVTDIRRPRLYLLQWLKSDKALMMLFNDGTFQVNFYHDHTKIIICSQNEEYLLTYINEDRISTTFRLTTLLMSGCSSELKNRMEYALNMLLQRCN

[5] = biological target: Serine/threonine-protein kinase SIK3 (Homo sapiens) (UniProt Q9Y2K2); conditions: Compound concentration 1000.0 nM
Sequence of Serine/threonine-protein kinase SIK3 (Homo sapiens) (Q9Y2K2 whole entry, looked up): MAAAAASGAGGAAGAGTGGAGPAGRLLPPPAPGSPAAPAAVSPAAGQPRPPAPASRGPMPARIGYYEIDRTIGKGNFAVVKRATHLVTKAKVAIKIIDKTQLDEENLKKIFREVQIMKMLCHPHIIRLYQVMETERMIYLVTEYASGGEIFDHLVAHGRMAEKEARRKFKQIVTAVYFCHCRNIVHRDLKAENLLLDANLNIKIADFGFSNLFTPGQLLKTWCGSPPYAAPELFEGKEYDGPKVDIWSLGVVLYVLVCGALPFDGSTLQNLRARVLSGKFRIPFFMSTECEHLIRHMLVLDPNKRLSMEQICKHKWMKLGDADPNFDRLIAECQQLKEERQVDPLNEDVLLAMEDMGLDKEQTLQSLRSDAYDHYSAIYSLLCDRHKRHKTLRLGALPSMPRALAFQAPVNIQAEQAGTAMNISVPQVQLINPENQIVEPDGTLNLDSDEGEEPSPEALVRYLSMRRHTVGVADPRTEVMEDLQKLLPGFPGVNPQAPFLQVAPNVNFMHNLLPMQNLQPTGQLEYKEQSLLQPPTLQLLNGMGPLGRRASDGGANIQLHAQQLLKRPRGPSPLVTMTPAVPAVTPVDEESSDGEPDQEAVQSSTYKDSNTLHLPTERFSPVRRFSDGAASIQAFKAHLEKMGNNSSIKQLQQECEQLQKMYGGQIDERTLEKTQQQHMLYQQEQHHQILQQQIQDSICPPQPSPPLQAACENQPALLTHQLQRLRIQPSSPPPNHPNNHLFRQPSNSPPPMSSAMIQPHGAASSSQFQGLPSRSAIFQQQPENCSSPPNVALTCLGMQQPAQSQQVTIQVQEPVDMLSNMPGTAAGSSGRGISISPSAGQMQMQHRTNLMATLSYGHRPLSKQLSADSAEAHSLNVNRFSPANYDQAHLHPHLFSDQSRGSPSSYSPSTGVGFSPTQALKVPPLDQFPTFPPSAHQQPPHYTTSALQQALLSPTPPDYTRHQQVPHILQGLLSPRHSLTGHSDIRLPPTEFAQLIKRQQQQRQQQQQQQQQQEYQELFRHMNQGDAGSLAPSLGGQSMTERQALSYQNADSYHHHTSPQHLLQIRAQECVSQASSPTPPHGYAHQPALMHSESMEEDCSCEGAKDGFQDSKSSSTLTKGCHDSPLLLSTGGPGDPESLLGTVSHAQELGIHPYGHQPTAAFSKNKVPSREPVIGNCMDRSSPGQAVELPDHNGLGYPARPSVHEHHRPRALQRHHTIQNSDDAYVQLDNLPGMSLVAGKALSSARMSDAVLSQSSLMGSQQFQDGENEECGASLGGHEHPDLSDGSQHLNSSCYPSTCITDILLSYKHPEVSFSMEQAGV

[6] = biological target: T2, Testis-specific serine/threonine-protein kinase 3 (Homo sapiens) (UniProt Q96PN8); conditions: Compound concentration 1000.0 nM
T2 sequence (whole entry): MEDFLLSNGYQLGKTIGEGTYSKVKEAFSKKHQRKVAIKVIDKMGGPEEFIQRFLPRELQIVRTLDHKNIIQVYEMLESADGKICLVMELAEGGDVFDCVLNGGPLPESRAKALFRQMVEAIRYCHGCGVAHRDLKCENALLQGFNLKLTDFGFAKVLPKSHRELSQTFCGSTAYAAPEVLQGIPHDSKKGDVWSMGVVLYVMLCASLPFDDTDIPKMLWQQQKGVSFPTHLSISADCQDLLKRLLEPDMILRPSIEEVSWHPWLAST

[7] = biological target: T3, Serine/threonine-protein kinase ULK2 (Homo sapiens) (UniProt Q8IYT8); conditions: Compound concentration 1000.0 nM
T3 sequence (whole entry): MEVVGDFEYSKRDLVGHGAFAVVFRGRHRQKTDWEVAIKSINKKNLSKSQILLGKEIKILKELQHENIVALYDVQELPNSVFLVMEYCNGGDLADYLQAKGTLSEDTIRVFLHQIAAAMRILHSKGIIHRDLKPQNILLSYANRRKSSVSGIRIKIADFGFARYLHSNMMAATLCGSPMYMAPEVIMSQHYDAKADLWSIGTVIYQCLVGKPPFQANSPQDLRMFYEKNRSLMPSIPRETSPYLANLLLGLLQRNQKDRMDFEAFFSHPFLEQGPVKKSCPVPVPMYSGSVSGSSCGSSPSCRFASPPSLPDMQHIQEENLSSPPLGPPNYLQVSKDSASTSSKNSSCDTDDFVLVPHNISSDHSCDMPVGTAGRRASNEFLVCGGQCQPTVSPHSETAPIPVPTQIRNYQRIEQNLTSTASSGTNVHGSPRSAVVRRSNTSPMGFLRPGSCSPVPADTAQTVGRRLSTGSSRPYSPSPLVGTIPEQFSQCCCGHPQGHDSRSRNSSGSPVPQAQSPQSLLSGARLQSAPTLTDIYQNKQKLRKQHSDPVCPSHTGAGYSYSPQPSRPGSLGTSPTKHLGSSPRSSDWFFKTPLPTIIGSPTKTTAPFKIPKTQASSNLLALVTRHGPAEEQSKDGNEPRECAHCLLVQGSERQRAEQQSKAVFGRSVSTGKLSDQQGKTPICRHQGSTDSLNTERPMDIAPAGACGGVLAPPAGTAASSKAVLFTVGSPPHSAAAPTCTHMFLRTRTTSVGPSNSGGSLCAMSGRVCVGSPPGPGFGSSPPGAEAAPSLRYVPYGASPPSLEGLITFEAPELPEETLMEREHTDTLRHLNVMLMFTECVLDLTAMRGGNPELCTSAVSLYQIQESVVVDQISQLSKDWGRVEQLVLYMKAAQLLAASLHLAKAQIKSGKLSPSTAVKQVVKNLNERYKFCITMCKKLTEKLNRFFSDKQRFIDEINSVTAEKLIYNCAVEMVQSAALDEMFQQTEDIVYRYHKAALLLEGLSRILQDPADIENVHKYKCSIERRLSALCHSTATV

[8] = biological target: Vascular endothelial growth factor receptor 2 (Homo sapiens) (UniProt P35968); conditions: Compound concentration 1000.0 nM
Sequence of Vascular endothelial growth factor receptor 2 (Homo sapiens) (P35968 whole entry): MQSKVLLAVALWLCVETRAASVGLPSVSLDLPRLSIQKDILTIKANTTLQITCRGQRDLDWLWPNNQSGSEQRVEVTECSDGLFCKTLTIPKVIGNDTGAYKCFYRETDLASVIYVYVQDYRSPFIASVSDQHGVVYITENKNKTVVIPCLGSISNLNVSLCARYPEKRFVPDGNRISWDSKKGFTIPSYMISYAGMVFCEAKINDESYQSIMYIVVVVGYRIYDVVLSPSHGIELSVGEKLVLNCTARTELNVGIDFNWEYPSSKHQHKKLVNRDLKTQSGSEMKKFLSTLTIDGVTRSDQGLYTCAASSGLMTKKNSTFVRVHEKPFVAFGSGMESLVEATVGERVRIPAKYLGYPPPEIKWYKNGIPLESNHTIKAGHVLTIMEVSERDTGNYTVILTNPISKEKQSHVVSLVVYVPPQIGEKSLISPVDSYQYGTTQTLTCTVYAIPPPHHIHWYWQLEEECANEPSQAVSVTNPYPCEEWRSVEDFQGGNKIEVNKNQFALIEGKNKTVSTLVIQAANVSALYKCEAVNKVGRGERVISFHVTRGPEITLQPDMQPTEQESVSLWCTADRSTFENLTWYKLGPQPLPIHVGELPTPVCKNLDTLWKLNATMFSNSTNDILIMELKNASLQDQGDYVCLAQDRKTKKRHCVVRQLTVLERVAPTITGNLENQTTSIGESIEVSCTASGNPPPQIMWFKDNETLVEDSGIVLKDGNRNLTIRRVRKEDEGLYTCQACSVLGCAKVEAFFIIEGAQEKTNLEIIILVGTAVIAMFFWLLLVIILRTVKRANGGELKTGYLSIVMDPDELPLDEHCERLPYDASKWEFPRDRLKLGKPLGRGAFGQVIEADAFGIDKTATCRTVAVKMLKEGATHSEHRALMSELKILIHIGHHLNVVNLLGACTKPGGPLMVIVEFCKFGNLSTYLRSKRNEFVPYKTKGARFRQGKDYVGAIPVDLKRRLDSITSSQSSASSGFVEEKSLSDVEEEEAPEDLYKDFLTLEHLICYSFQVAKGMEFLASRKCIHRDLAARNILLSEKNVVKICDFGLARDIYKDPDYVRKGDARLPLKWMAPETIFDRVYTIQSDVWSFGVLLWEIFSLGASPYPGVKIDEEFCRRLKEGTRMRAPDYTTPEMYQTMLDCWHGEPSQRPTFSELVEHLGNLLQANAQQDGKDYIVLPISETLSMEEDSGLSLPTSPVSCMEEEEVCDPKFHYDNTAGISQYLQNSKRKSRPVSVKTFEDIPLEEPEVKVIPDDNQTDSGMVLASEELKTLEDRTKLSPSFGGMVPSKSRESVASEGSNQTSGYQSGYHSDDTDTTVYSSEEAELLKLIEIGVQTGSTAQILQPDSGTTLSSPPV

[9] = biological target: D(3) dopamine receptor (Homo sapiens) (UniProt P35462); conditions: Compound concentration 10.0 uM
Sequence of D(3) dopamine receptor (Homo sapiens) (P35462 whole entry): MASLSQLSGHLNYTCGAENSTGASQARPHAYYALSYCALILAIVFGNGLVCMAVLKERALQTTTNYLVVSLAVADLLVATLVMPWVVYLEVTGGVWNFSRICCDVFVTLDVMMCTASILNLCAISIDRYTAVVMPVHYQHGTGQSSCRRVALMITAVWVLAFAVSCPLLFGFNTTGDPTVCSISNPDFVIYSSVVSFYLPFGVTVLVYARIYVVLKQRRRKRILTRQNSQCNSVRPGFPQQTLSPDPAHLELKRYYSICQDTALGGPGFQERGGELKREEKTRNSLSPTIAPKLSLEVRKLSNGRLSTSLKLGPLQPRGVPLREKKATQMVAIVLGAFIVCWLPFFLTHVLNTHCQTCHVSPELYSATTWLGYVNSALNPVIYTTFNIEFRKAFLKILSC

CCc1ccccc1C(=O)Nc1n[nH]c2c(C)c(F)c(C3C(C#N)=C(C)N(C)C(C)=C3C#N)cc12 [BAY-3827]
inactive: residual activity [1] 100% | residual activity [2] 100% | residual activity [3] 95% | residual activity [4] 97% | residual activity [5] 74% | residual activity [6] 100% | residual activity [7] 100% | residual activity [8] 88% | inhibition [9] 10.4%

CC1=C(C#N)C(c2ccc3c(c2)c(NC(=O)c2ccccc2C)nn3C)C(C#N)=C(C)N1 [BAY-974]
inactive: residual activity [1] 89% | residual activity [2] 100% | residual activity [3] 94% | residual activity [4] 74% | residual activity [5] 81% | residual activity [6] 80% | residual activity [7] 72% | residual activity [8] 80% | inhibition [9] 2.48%
